Reference: patent publication US6875451B2, “Compositions and methods for the treatment of primary and metastatic neoplastic diseases using arsenic compounds” (PolaRx Biopharmaceuticals Inc., priority 1997, dated 2005)

Experiments:
Type in all cases: cell-based
A498 = assay: SRB growth assay, 2 days exposure, renal cancer
Protocol: (§1) Arsenic trioxide (1 mg/ml, 10 mg/ampoule, manufactured by Taylor Pharmaceuticals, Decatur, Ill.) was tested at five concentrations each at 10-fold dilutions, i.e., 10^−5, 10^−6, 10^−7, 10^−8 and 10^−9 μg/ml.
(§2) The in vitro tests were performed by incubating the test cells in the presence of the indicated concentration of arsenic trioxide under standard culture conditions for a designated period of time, which is followed by a sulforhodamine B (SRB) protein assay to estimate cell viability or growth. The cell lines are organized into subpanels according to the origin of the cell lines, e.g., leukemia, breast cancer, etc. A description of the cell lines and method of testing is described in Monk et al. (1997, Anticancer Drug Des. 12:533-41) and Weinstein et al., (1997, Science 275:343-9), which are incorporated herein in their entirety.
(§3) The measurement of an effect is expressed in Percentage Growth (PG). The measured effect of the compound on a cell line is calculated according to one or the other of the following two expressions: If (Mean ODtest−Mean ODzero)≧0. then PG=100×(Mean ODtest−Mean ODzero)/(Mean ODctrl−Mean ODzero) If (Mean ODtest−Mean ODzero)<0. then PG=100×(Mean ODtest−Mean ODzero)/(Mean ODzero where: • Mean ODzero=the average of optical density measurements of SRB-derived color just before exposure of cells to the test compounds; • Mean ODtest=the average of optical density measurements of SRB-derived color after exposure of cells to the test compound for a designated period of time; and • Mean ODctrl=the average of optical density measurements of SRB-derived color after with no exposure of cells to the test compound for a designated period of time
(§4) The first two columns describe the subpanel (e.g., leukemia) and cell line (e.g., CCRF-CEM) involved. The next two columns list the Mean ODzero and Mean ODctrl; the next five columns list the Mean ODtest for each of five different concentrations. Each concentration is expressed as the log10 (molar or μg/ml). The next five columns list the calculated PGs for each concentration. The response parameters GI50, TGI and LC50 are interpolated values representing the concentrations at which the PG is +50, 0, and −50, respectively. Sometimes these response parameters cannot be obtained by interpolation. If, for instance, all of the PGs in a given row exceed +50, then none of the three parameters can be obtained by interpolation. In such a case, the value given for each response parameter is the highest concentration tested and is preceded by a “>” sign. This practice is extended similarly to the other possible situations where a response parameter cannot be obtained by interpolation.
(§5) In the first set, the cells from 56 different cancer cell lines were exposed to five concentrations of arsenic trioxide continuously for two days prior to performing the SRB assay. In the second set, the cells from 50 different cell lines (a subset of the first 56 cell lines, plus the renal cancer cell line 786-0) were exposed continuously for six days prior to the SRB assay.

CAKI-1 = assay: SRB growth assay, 2 days exposure, renal cancer
Protocol: as §1, §2, §3, §4, §5

RXE 393 = assay: SRB growth assay, 2 days exposure, renal cancer
Protocol: as §1, §2, §3, §4, §5

SN12C = assay: SRB growth assay, 2 days exposure, renal cancer
Protocol: as §1, §2, §3, §4, §5

TX-10 = assay: SRB growth assay, 2 days exposure, renal cancer
Protocol: as §1, §2, §3, §4, §5

UO-31 = assay: SRB growth assay, 2 days exposure, renal cancer
Protocol: as §1, §2, §3, §4, §5

SF-295 = assay: SRB growth assay, 6 days exposure, CNS cancer; details: SF-295, 6 days
Protocol: as §1, §2, §3, §4, §5

SF-539 = assay: SRB growth assay, 6 days exposure, CNS cancer; details: SF-539, 6 days
Protocol: as §1, §2, §3, §4, §5

[1] = tested on: 56 different cancer cell lines; assay: NCI cancer cell line panel, SRB assay, first set, 2 days exposure (whole panel, mean graph)
Protocol: as §1, §2, §3
The first two columns describe the subpanel (e.g., leukemia) and cell line (e.g., CCRF-CEM) involved. The next two columns list the Mean ODzero and Mean ODctrl; the next five columns list the Mean ODtest for each of five different concentrations. Each concentration is expressed as the log10 (molar or μg/ml). The next five columns list the calculated PGs for each concentration. […]

arsenic trioxide
TGI (A498): 0.00971 ng/mL | Percent Growth (A498; log10 conc −4.9): −11% | Percent Growth (A498; log10 conc −5.9): 84% | Percent Growth (A498; log10 conc −6.9): 89% | Percent Growth (A498; log10 conc −7.9): 93% | Percent Growth (A498; log10 conc −8.9): 105% | TGI (CAKI-1): 0.00913 ng/mL | Percent Growth (CAKI-1; log10 conc −4.9): −13% | Percent Growth (CAKI-1; log10 conc −5.9): 78% | Percent Growth (CAKI-1; log10 conc −6.9): 128% | Percent Growth (CAKI-1; log10 conc −7.9): 103% | Percent Growth (CAKI-1; log10 conc −8.9): 120% | TGI (RXE 393): >0.0126 ng/mL | Percent Growth (RXE 393; log10 conc −4.9): 7% | Percent Growth (RXE 393; log10 conc −5.9): 67% | Percent Growth (RXE 393; log10 conc −6.9): 109% | Percent Growth (RXE 393; log10 conc −7.9): 74% | Percent Growth (RXE 393; log10 conc −8.9): 23% | TGI (SN12C): 0.00696 ng/mL | Percent Growth (SN12C; log10 conc −4.9): −28% | Percent Growth (SN12C; log10 conc −5.9): 81% | Percent Growth (SN12C; log10 conc −6.9): 88% | Percent Growth (SN12C; log10 conc −7.9): 96% | Percent Growth (SN12C; log10 conc −8.9): 97% | TGI (TX-10): >0.0126 ng/mL | Percent Growth (TX-10; log10 conc −4.9): 55% | Percent Growth (TX-10; log10 conc −5.9): 96% | Percent Growth (TX-10; log10 conc −6.9): 102% | Percent Growth (TX-10; log10 conc −7.9): 96% | Percent Growth (TX-10; log10 conc −8.9): 98% | TGI (UO-31): >0.0126 ng/mL | Percent Growth (UO-31; log10 conc −4.9): 42% | Percent Growth (UO-31; log10 conc −5.9): 103% | Percent Growth (UO-31; log10 conc −6.9): 110% | Percent Growth (UO-31; log10 conc −7.9): 108% | Percent Growth (UO-31; log10 conc −8.9): 105% | TGI (SF-295): 3.25E−06 | Mean Optical Densities (SF-295; Log 10 Concentration −4.9): 0.010 | Percent Growth (SF-295; Log 10 Concentration −4.9): −69% | Mean Optical Densities (SF-295; Log 10 Concentration −5.9): 0.659 | Percent Growth (SF-295; Log 10 Concentration −5.9): 49% | Mean Optical Densities (SF-295; Log 10 Concentration −6.9): 1.244 | Percent Growth (SF-295; Log 10 Concentration −6.9): 94% | Mean Optical Densities (SF-295; Log 10 Concentration −7.9): 1.279 | Percent Growth (SF-295; Log 10 Concentration −7.9): 97% | Mean Optical Densities (SF-295; Log 10 Concentration −8.9): 1.284 | Percent Growth (SF-295; Log 10 Concentration −8.9): 97% | TGI (SF-539): 3.29E−06 | Mean Optical Densities (SF-539; Log 10 Concentration −4.9): 0.017 | Percent Growth (SF-539; Log 10 Concentration −4.9): −59% | Mean Optical Densities (SF-539; Log 10 Concentration −5.9): 0.691 | Percent Growth (SF-539; Log 10 Concentration −5.9): 42% | Mean Optical Densities (SF-539; Log 10 Concentration −6.9): 1.545 | Percent Growth (SF-539; Log 10 Concentration −6.9): 97% | Mean Optical Densities (SF-539; Log 10 Concentration −7.9): 1.403 | Percent Growth (SF-539; Log 10 Concentration −7.9): 87% | Mean Optical Densities (SF-539; Log 10 Concentration −8.9): 1.727 | Percent Growth (SF-539; Log 10 Concentration −8.9): 108% | reducing cell growth ([1]; first set of tests, 2 days exposure, all cell lines tested): effective in reducing cell growth against almost all the cell lines tested | reduction of growth ([1]; leukemic, melanoma and ovarian cancer cell lines, 2 days exposure): more than 50% | sensitivity relative to all the cell lines tested (mean graph, FIG. 2) ([1]; most leukemic and melanoma cell lines, SNB-75, U251, PC-3, A498, CAKI-1, SN12C, NCI-H522, 2 days): especially sensitive
